In ChEMBL document CHEMBL5370676, “KRAS-Degrading Compounds: A Novel Approach to Treat Cancer by Targeting Both Wild-Type and Mutated KRAS Forms” (ACS Med Chem Lett, 2023):

Experiments:
Type in all cases: cell-based
[1] = biological target: T1, von Hippel-Lindau disease tumor suppressor/GTPase KRas (Homo sapiens, UniProt P01116+P40337, G12D); assay: PROTAC activity at VHL/N-terminal HiBit-tagged KRAS G12D mutant (unknown origin) in human GP5d cells assessed as induction of KRAS G12D protein degradation incubated for 18 hrs by Nano-Gio HiBiT assay
[2] = system: von Hippel-Lindau disease tumor suppressor/GTPase KRas (Homo sapiens), P01116+P40337 [G12D]; assay: PROTAC activity at VHL/HiBit-tagged KRAS G12D mutant (unknown origin) in human GP5d cells assessed as induction of KRAS G12D protein degradation incubated for 18 hrs by Nano-Gio HiBiT assay relative control
[3] = biological target: T1, von Hippel-Lindau disease tumor suppressor/GTPase KRas; assay: PROTAC activity at E3 ubiquitin ligase/N-terminal HiBit-tagged KRAS G12D mutant (unknown origin) in human GP5d cells assessed as induction of KRAS G12D protein degradation incubated for 18 hrs by Nano-Gio HiBiT assay
[4] = system: von Hippel-Lindau disease tumor suppressor/GTPase KRas (Homo sapiens), P01116+P40337 [G12D]; assay: PROTAC activity at E3 ubiquitin ligase/N-terminal HiBit-tagged KRAS G12D mutant (unknown origin) in human GP5d cells assessed as induction of KRAS G12D protein degradation incubated for 18 hrs by Nano-Gio HiBiT assay relative to control

T1 sequence (P01116 whole entry G12D, stated change not applied): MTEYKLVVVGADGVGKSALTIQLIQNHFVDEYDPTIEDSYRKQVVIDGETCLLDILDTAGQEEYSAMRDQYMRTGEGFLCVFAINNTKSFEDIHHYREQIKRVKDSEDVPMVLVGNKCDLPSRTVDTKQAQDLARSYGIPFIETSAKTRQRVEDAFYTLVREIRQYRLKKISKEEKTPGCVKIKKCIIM
T1 sequence (P40337 whole entry, stated change not applied): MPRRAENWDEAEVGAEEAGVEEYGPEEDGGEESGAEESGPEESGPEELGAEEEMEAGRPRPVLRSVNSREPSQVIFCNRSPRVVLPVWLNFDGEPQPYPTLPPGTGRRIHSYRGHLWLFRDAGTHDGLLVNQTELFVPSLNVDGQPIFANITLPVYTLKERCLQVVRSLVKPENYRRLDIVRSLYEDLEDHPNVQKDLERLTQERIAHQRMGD
von Hippel-Lindau disease tumor suppressor/GTPase KRas (Homo sapiens), P01116+P40337 [G12D], sequence (P01116 whole entry G12D): as the sequence (P01116 whole entry G12D, stated change not applied) above
von Hippel-Lindau disease tumor suppressor/GTPase KRas (Homo sapiens), P01116+P40337 [G12D], sequence (P40337 whole entry partner): as the sequence (P40337 whole entry, stated change not applied) above

Row | SMILES | DC50 [1] | Emax [2] | DC50 [3] | Emax [4]
1 | Cc1ncsc1-c1ccc(CNC(=O)[C@@H]2C[C@@H](O)CN2C(=O)C(c2cc(OCCCCN3CCCN(c4nccc(-c5noc([C@@]6(C)CCCc7sc(N)c(C#N)c76)n5)n4)[C@@H](C)C3)no2)C(C)C)cc1F (some centres undefined) | 6.5 nM | 92% | – | –
2 | Cc1ncsc1-c1ccc(CNC(=O)[C@@H]2C[C@@H](O)CN2C(=O)C(c2cc(OCCCCN3CCCN(c4nccc(-c5noc([C@@]6(C)CCCc7sc(N)c(C#N)c76)n5)n4)[C@@H](C)C3)no2)C(C)C)cc1 (some centres undefined) | 2.7 nM | 91% | – | –
3 | Cc1ncsc1-c1ccc(CNC(=O)[C@@H]2C[C@@H](O)CN2C(=O)C(c2cc(OCCCCN3CCCN(c4nccc(-c5cc([C@@]6(C)CCCc7sc(N)c(C#N)c76)on5)n4)[C@@H](C)C3)no2)C(C)C)cc1 (some centres undefined) | 4.3 nM | 94% | – | –
4 | Cc1ncsc1-c1ccc(CNC(=O)[C@@H]2C[C@@H](O)CN2C(=O)C(c2cc(OCCCN3CCCN(c4nccc(-c5noc([C@@]6(C)CCCc7sc(N)c(C#N)c76)n5)n4)[C@@H](C)C3)no2)C(C)C)cc1 (some centres undefined) | 6.4 nM | 94% | – | –
5 | Cc1ncsc1-c1ccc([C@@H](NC(=O)[C@H]2C[C@H](O)CN2C(=O)[C@@H](C(C)C)n2cc(OCCCN3CCCN(c4nccc(-c5noc([C@@]6(C)CCCc7sc(N)c(C#N)c76)n5)n4)[C@@H](C)C3)nn2)[C@@H](O)C(C)C)cc1 | 1.2 nM | 93% | – | –
6 | Cc1ncsc1-c1ccc([C@H](NC(=O)[C@@H]2C[C@@H](O)CN2C(=O)[C@H](C(C)C)n2cc(OCCCCN3CCCN(c4nccc(-c5noc([C@@]6(C)CCCc7sc(N)c(C#N)c76)n5)n4)[C@@H](C)C3)nn2)[C@H](C)O)cc1 (single isomer, unassigned) | 1.6 nM | 94% | – | –
7 | Cc1ncsc1-c1ccc(CNC(=O)[C@@H]2C[C@@H](O)CN2C(=O)C(c2cc(OCCCCN3CCCN(c4nccc(-c5cc([C@@]6(C)CCCc7sc(N)c(C#N)c76)no5)n4)[C@@H](C)C3)no2)C(C)C)cc1 (single isomer, unassigned) | 8.9 nM | 92% | – | –
8 | CC(C)C(C(=O)N1C[C@H](O)C[C@H]1C(=O)NCc1ccc(-n2ccnc2)cc1)c1cc(OCCCCN2CCCN(c3nccc(-c4noc([C@@]5(C)CCCc6sc(N)c(C#N)c65)n4)n3)[C@@H](C)C2)no1 (single isomer, unassigned) | – | – | 6.7 nM | 93%
9 | CC(C)C(C(=O)N1C[C@H](O)C[C@H]1C(=O)NCc1ccc(C#N)cc1)c1cc(OCCCCN2CCCN(c3nccc(-c4noc([C@@]5(C)CCCc6sc(N)c(C#N)c65)n4)n3)[C@@H](C)C2)no1 (single isomer, unassigned) | – | – | 3.9 nM | 91%
10 | Cc1ncsc1-c1ccc([C@H](CO)NC(=O)[C@@H]2C[C@@H](O)CN2C(=O)[C@H](C(C)C)n2cc(OCCCC(C)N3CCCN(c4nccc(-c5noc([C@@]6(C)CCCc7sc(N)c(C#N)c76)n5)n4)[C@@H](C)C3)nn2)cc1 (single isomer, unassigned) | 1.4 nM | 94% | – | –
11 | Cc1ncsc1-c1ccc([C@H](C)NC(=O)[C@@H]2C[C@@H](O)CN2C(=O)C(C(C)C)n2cc(OCCCCN3CCCN(c4nccc(-c5noc([C@@]6(C)CCCc7sc(N)c(C#N)c76)n5)n4)[C@@H](C)C3)nn2)cc1 (single isomer, unassigned) | 1.5 nM | 93% | – | –
12 | CC(C)C(C(=O)N1C[C@H](O)C[C@H]1C(=O)NCc1ccc(-n2cncn2)cc1)c1cc(OCCCCN2CCCN(c3nccc(-c4noc([C@@]5(C)CCCc6sc(N)c(C#N)c65)n4)n3)[C@@H](C)C2)no1 (single isomer, unassigned) | – | – | 3.3 nM | 93%
